Tests used:
[1] = LNP encapsulation efficiency (Quant-it Ribogreen); format: physicochemical; conditions: mRNA LNP, cationic lipid/DSPC/cholesterol/PEG-lipid 50:10:38.5:1.5
Text: Encapsulation Efficiency: The encapsulation efficiency of a therapeutic and/or prophylactic agent refers to the amount of the therapeutic and/or prophylactic agent encapsulated within or otherwise associated with the nanoparticle composition relative to the initial amount provided during preparation. Encapsulation efficiency is desirably high (such as close to 100%). Encapsulation efficiency can be measured, for example, by comparing the amount of therapeutic and/or prophylactic agent in a solution containing the nanoparticle composition before and after disruption of the nanoparticle composition using one or more organic solvents or detergents. Fluorescence can be used to measure the amount of free therapeutic and/or prophylactic agent (e.g., RNA) in solution. For the nanoparticle compositions described herein, the encapsulation efficiency of the therapeutic and/or prophylactic agent may be at least 50%, such as 50%, 55%, 60%, 65%, 70%, 75%, 80%, 85%, 90%, 91%, 92%, 93%, 94%, 95%, 96%, 97%, 98%, 99%, or 100%. In some embodiments, the encapsulation efficiency may be at least 80%. In certain embodiments, the encapsulation efficiency may be at least 90%.
(§1) In summary, the cationic lipid described herein, DSPC, cholesterol, and PEG-lipid were dissolved in ethanol at a molar ratio of 50:10:38.5:1.5 and diluted in 10 mM to 50 mM citrate buffer at pH 4 with mRNA. Using a microfluidic device, the lipid ethanol solution was mixed with mRNA aqueous solution at a volume ratio of 1:3 and a total flow rate ranging from 6-30 mL/min, preparing LNPs with a total lipid to mRNA weight ratio of approximately 10:1 to 30:1. Ethanol was removed by dialysis and replaced with PBS. Finally, the lipid nanoparticles were filtered through a 0.22 μm sterile filter.
(§2) The size of lipid nanoparticles was measured by dynamic light scattering using a Malvern Zetasizer Nano ZS (Malvern, UK) with a 90° scattering detection mode. The encapsulation efficiency of lipid nanoparticles was determined using the Quant-it Ribogreen RNA Quantitation Kit (Thermo Fisher Scientific, UK) according to the manufacturer's instructions. The apparent pKa of LNP formulations correlates with the delivery efficiency of nucleic acids by LNPs in vivo. The apparent pKa ranges from approximately 5 to 7. An analysis based on fluorescence from 2-(p-tolylamino)-6-naphthalenesulfonic acid (TNS) was used to determine the apparent pKa of formulations. As described above, LNP formulations containing cationic lipid/DSPC/cholesterol/DMG-PEG (50/10/38.5/1.5 mol %) in PBS were prepared. A 300 μM stock solution of TNS in distilled water was prepared. LNP formulations were diluted to 0.1 mg/mL total lipid in 3 mL of buffer solution containing 50 mM sodium citrate, 50 mM sodium phosphate, 50 mM sodium borate, and 30 mM sodium chloride (pH ranged from 3 to 9). […] S-shaped curve best-fit analysis was applied to the fluorescence data, and the pKa value was measured as the pH value producing half-maximal fluorescence intensity.

[2] = LNP size and PDI by dynamic light scattering; format: physicochemical; conditions: mRNA LNP, cationic lipid/DSPC/cholesterol/PEG-lipid 50:10:38.5:1.5
Description: as §1, §2

[3] = LNP zeta potential; format: physicochemical; conditions: mRNA LNP
Text: Nanoparticle compositions can be characterized by various methods. For example, the morphology and size distribution of nanoparticle compositions can be examined using microscopy (e.g., transmission electron microscopy or scanning electron microscopy). The zeta potential can be measured using dynamic light scattering or potentiometric titration. Dynamic light scattering can also be used to determine particle size. Instruments such as the Zetasizer Nano ZS (Malvern Instruments Ltd., Malvern, Worcestershire, UK) can also be used to measure multiple characteristics of nanoparticle compositions, such as particle size, polydispersity index, and zeta potential.
[…]: The zeta potential of the nanoparticle composition can indicate the electrophoretic potential of the composition. For example, zeta potential may describe the surface charge of the nanoparticle composition. Nanoparticle compositions with relatively low positive or negative charges are generally desirable, as materials with higher charges may interact undesirably with cells, tissues, and other components in the body. In some embodiments, the zeta potential of the nanoparticle composition may be about −10 mV to about +20 mV, about −10 mV to about +15 mV, about −10 mV to about +10 mV, about −10 mV to about +5 mV, about −10 mV to about 0 mV, about −10 mV to about −5 mV, about −5 mV to about +20 mV, about −5 mV to about +15 mV, about −5 mV to about +10 mV, about −5 mV to about +5 mV, about −5 mV to about 0 mV, about 0 mV to about +20 mV, about 0 mV to about +15 mV, about 0 mV to about +10 mV, about 0 mV to about +5 mV, about +5 mV to about +20 mV, about +5 mV to about +15 mV, or about +5 mV to about +10 mV.

[4] = tested on: mice; assay: Bioluminescent study, intramuscular injection of F-luc mRNA LNPs; format: in vivo; conditions: F-luc luminescence flux normalized to MC3; 0.25 mg/kg intramuscular, mice n=3, 6-hour time point
Description: The efficacy of nanoparticle compositions was evaluated using bioluminescent studies. A dose of 0.25 mg/kg (mpk) of the formulation was administered to mice (n=3) via intramuscular injection, and bioluminescence was measured at a 6-hour time point. The test lipid nanoparticles from the MC3 formulation were evaluated, and in some cases, controls (e.g., PBS controls) were assessed for comparison.
The characteristics of the test lipid nanoparticles measured from the test groups, including F-luc luminescence intensity, are listed in the table below.

Row | Encapsulation efficiency (%) [1] [%] | PDI [2] | Size (nm) [2] [nm] | Zeta potential (mV) [3] [mV] | Structure (SMILES) | Relative Total flux [4]
1 | 60.65 | 0.113 | 93.07 | 17.70 | CCCCCCCCC(C(=O)NCCCCCCCCCC(=O)OCC1CC=CCC1)N(CCCN(C)C)C(=O)CCCCCCCCCC(=O)OC(CCCCCC)CCCCCC (stereo not shown) [Compound A20] | D (D: <0.1.)
2 | 54.53 | 0.071 | 95.73 | 11.03 | CCCCC/C=C\C/C=C\CCCCCCCC(=O)N(CCCN1CCCC1)CC(=O)NCCCCCCCCCCCCCC [Compound A21] | C (C: ≥0.1 and <1)
3 | 95.33 | 0.11 | 121.37 | −3.43 | CCCCCCCCNC(=O)C(CCCC)N(CCCN(C)C)C(=O)CCCCCCC(=O)OC(CCCCCCCC)CCCCCCCC (stereo not shown) [Compound A27] | A (A: ≥2)
4 | 85.93 | 0.15 | 88.05 | −0.41 | CCCCCCCCNC(=O)C(CCCCC)N(CCCN(C)C)C(=O)CCCCCCC(=O)OC(CCCCCCCC)CCCCCCCC (stereo not shown) [Compound A28] | A (A: ≥2)
5 | 94.69 | 0.09 | 94.71 | −1.24 | CCCCCCCCNC(=O)C(CCCCCC)N(CCCN(C)C)C(=O)CCCCCCC(=O)OC(CCCCCCCC)CCCCCCCC (stereo not shown) [Compound A29] | A (A: ≥2)
6 | 96.65 | 0.12 | 86.87 | 0.47 | CCCCCCCCNC(=O)C(CCCCCCC)N(CCCN(C)C)C(=O)CCCCCCC(=O)OC(CCCCCCCC)CCCCCCCC (stereo not shown) [Compound A30] | B (B: ≥1 and <2)
7 | 97.50 | 0.22 | 79.94 | −4.31 | CCCCCCCCNC(=O)CCCCCNC(=O)C(CCCCCCCC)N(CCCN(C)C)C(=O)CCCCCC(=O)NC(CCCCCCC)CCCCCCC (stereo not shown) [Compound A31] | B (B: ≥1 and <2)
8 | 95.33 | 0.13 | 85.33 | 1.89 | CCCCCCCCNC(=O)C(CCCCCCCC)N(CCCN(C)C)C(=O)CCCCCC(=O)NC(CCCCCCC)CCCCCCC (stereo not shown) [Compound A32] | B (B: ≥1 and <2)
9 | 94.69 | 0.10 | 79.84 | 0.51 | CCCCCCCCNC(=O)C(CCCCCCCC)N(CCCN(CC)CC)C(=O)CCCCCCC(=O)OC(CCCCCCCC)CCCCCCCC (stereo not shown) [Compound A33] | A (A: ≥2)
10 | 95.23 | 0.11 | 94.21 | 2.08 | CCCCCCCCNC(=O)C(CCCCCCCC)N(CCC1CCCN1C)C(=O)CCCCCCC(=O)OC(CCCCCCCC)CCCCCCCC (stereo not shown) [Compound A34] | A (A: ≥2)
11 | 97.34 | 0.19 | 74.92 | −7.81 | CCCCCCCCNC(=O)C(CCCCCCCC)N(CCCCN(C)C)C(=O)CCCCCCC(=O)OC(CCCCCCCC)CCCCCCCC (stereo not shown) [Compound A35] | A (A: ≥2)
12 | 92.48 | 0.17 | 79.52 | −1.82 | CCCCCCCCNC(=O)C(CCCCCCCC)N(CCCN1CCCC1)C(=O)CCCCCCC(=O)OC(CCCCCCCC)CCCCCCCC (stereo not shown) [Compound A36] | A (A: ≥2)
13 | 93.54 | 0.17 | 75.94 | −0.97 | CCCCCC/C=C\CCCCCCCC(C(=O)NCCCCCC)N(CCCN(C)C)C(=O)CCCCCCC(=O)OC(CCCCCCCC)CCCCCCCC (stereo not shown) [Compound A40] | C (C: ≥0.1 and <1)
14 | 54.08 | 0.66 | 264.60 | −10.28 | CCCCCCCCCCOCCCCCCCC(=O)N(CCCN(C)C)C(CCCCCCCC)C(=O)NCCCCCC(=O)OC(CCCCCCCC)CCCCCCCC (stereo not shown) [Compound A41] | C (C: ≥0.1 and <1)
15 | 95.23 | 0.19 | 90.78 | −1.88 | CCCCCCCCCCOCCCCCCCC(=O)N(CCCN(C)C)C(CCCCCCCC)C(=O)NCCCCCCCC (stereo not shown) [Compound A42] | A (A: ≥2)
16 | 94.62 | 0.06 | 79.00 | 0.83 | CCCCCCCCC(CCCCCC)COC(=O)CCCCCNC(=O)C(CCCCC)N(CCCN1CCCC1)C(=O)CCCCCC(=O)OCC(CCCCCC)CCCCCCCC (stereo not shown) [Compound A45] | A (A: ≥2)
17 | 94.31 | 0.19 | 107.50 | −0.55 | CCCCCCCCC(CCCCCC)COC(=O)CCCCCNC(=O)C(CCCCC)N(CCCCN1CCCC1)C(=O)CCCCCC(=O)OCC(CCCCCC)CCCCCCCC (stereo not shown) [Compound A46] | A (A: ≥2)
18 | 94.62 | 0.08 | 64.27 | 0.65 | CCCCCCCCC(CCCCCCCC)OC(=O)CCCCCC(=O)N(CCCN(C)C)C(CCCCCCCC)C(=O)NCCCCCC(=O)OCCC12CC3CC(CC(C3)C1)C2 (stereo not shown) [Compound A48] | A (A: ≥2)
19 | 85.90 | 0.15 | 104.5 | −6.41 | CCCCCCCC(C(=O)NCCCCCCCCCC(=O)OC(CCCCCC)CCCCCC)N(CCCN(CCO)CCO)C(=O)CCCCCCCCCC(=O)OC(CCCCCC)CCCCCC (stereo not shown) [Compound B2] | A (A: ≥2)
20 | 79.83 | 0.306 | 85.75 | −6.91 | CCCCCCCCC(C(=O)NCCCCCCCCCC(=O)OCCCCCC)N(CCCN(CCO)CCO)C(=O)CCCCCCCCCC(=O)OC(CCCCCC)CCCCCC (stereo not shown) [Compound B3] | A (A: ≥2)
